# Assay results as given in US9486394B2, “Pharmaceutical foam” (STIEFEL WEST COAST, LLC, priority 2003, dated 2016).
# Tests used:
# [1] = Stability with different can linings (Example 2); type: physicochemical; conditions: 4 weeks
# Protocol: Low buffer levels at a pH of 4.5 or 6.5, including unbuffered pH 4.5, were tested in cans with either epoxy-phenolic, polyamide-imide (PAM), or Micoflex linings. Some of the PAM-lined cans were scratched internally to check for corrosion on bare aluminum. Cans were stored at 4° C., 40° C., and 50° C. for 4 weeks and then examined.
# [2] = Stability, citrate buffer pH, epoxy-phenolic lined cans (Example 1); conditions: 1 month
# Protocol: In this study, a citrate buffer solution was used to adjust the pH of the mixture to pH 4.5, pH 5.5, and pH 6.5 using four different buffer concentrations (i.e., 0, 0.1, 0.3, 0.5%) and two alternative emollients or humectants, i.e., propylene glycol and glycerin. The containers were stored at 50° C. for 1 month and then examined.
smiles,measurement,setting,value
CCC[C@@H]1C[C@@H](C(=O)N[C@@H]([C@H]2O[C@H](SC)[C@H](OP(=O)(O)O)[C@@H](O)[C@H]2O)[C@H](C)Cl)N(C)C1 [clindamycin phosphate],clindamycin phosphate stability in PAM-lined container,[1]; FIG. 4,unexpectedly high
same,degradation of clindamycin phosphate,[1]; 40° C.,moderate degradation
same,degradation of clindamycin phosphate,[1]; 50° C.,relatively severe degradation
same,clindamycin phosphate degradation at higher buffer levels,"[2]; citrate buffer 0.5%, 0.3% vs 0.1%, 0.0%, 50° C.",higher amount of clindamycin phosphate degradation
same,stability of clindamycin phosphate as a function of pH,"[2]; pH 4.5, 5.5, 6.5, 50° C., FIG. 3",more stable at a lower pH level
